The source of these data is ChEMBL document CHEMBL1921746, “Chemical constituents of the rhizomes of Hedychium coronarium and their inhibitory effect on the pro-inflammatory cytokines production LPS-stimulated in bone marrow-derived dendritic cells” (Bioorg Med Chem Lett, 2011).

The structures appear in SMILES notation. Activity calls are given as the source filed them. The rule behind the calls is not given here.

Data set [1] in a line: Antiinflammatory activity in C57BL/6 mouse BMDC assessed as inhibition of LPS-stimulated TNF-alpha production preincubated for 1 hr before LPS-stimulation measured after 16 hrs by ELISA. The class given is functional. (ELISA stands for enzyme-linked immunosorbent assay.)
Data set [2] is described as follows: Antiinflammatory activity in C57BL/6 mouse BMDC assessed as inhibition of LPS-stimulated IL-6 production preincubated for 1 hr before LPS-stimulation measured after 16 hrs by ELISA. Format: functional.
Data set [3] can be described thus: Antiinflammatory activity in C57BL/6 mouse BMDC assessed as inhibition of LPS-stimulated IL-12p40 production preincubated for 1 hr before LPS-stimulation measured after 16 hrs by ELISA. The class given is functional.
For data set [4], the system named is BMDC. The experiment in a line: Antiinflammatory activity in C57BL/6 mouse BMDC assessed as inhibition of LPS-stimulated TNF-alpha production up to 50 uM preincubated for 1 hr before LPS-stimulation measured after 16 hrs by ELISA. The class given is functional.
Data set [5] relates to BMDC. The experiment in a line: Antiinflammatory activity in C57BL/6 mouse BMDC assessed as inhibition of LPS-stimulated IL-6 production up to 50 uM preincubated for 1 hr before LPS-stimulation measured after 16 hrs by ELISA. The class given is functional.
In data set [6] the test system is BMDC. Description: Antiinflammatory activity in C57BL/6 mouse BMDC assessed as inhibition of LPS-stimulated IL-12p40 production up to 50 uM preincubated for 1 hr before LPS-stimulation measured after 16 hrs by ELISA. Format: functional.
Data set [7] can be described thus: Cytotoxicity against C57BL/6 mouse BMDC assessed as reduction of cell viability by MTT assay. (In general: Formazan colour is commonly taken as a measure of viable cells.)

As to `CC1(C)CCC[C@]2(C)[C@H]3C/C=C(/C=O)CC(O)CC3=CC(=O)[C@@H]12` (some centres not stated) [CORONARIN H], the IC50 (usually the point on the concentration scale where inhibition reaches its midpoint) in data set [1] stood at 26.8 µM; in data set [2] it was 8.93 µM; in data set [3], 8.02 µM.

For `C=C[C@@](C)(O)CC/C=C(\C)CCC=C(C)C`, the inhibition result in the data set with BMDC [4], in the data set with BMDC [5] and in the data set with BMDC [6] was “inactive” each time.

For the molecule `C=C1CC[C@H]2C(C)(C)CCC[C@]2(C)[C@H]1C/C=C1/CC(OC)OC1=O` (some centres not stated) [CORONARIN D METHYL ETHER], in data set [7], the Activity entry was “Toxic”.

`C=C1[C@@H](O)C[C@H]2C(C)(C)CCC[C@]2(C)[C@H]1/C=C/C1=CC(=O)OC1O` (some centres not stated) [HEDYFORRESTIN C]: the IC50 in data set [1] was 10.4 µM; in data set [2], 3.38 µM; in data set [3], 0.19 µM.

As for `C=C1CC[C@H]2C(C)(C)CCC[C@]2(C)[C@H]1CCC1=CC(OC)OC1=O` (some centres not stated) [CORONARIN G], the IC50 amounted to 12.6 µM in data set [1], 7.57 µM in data set [2] and 6.6 µM in data set [3].

With `C=C1CC[C@H]2C(C)(C)CCC[C@]2(C)[C@H]1C/C=C1/CC(O)OC1=O` (some centres not stated) [CORONARIN D], in data set [1], the IC50 was 41.7 µM.

As for `CC[C@H](CC[C@@H](C)[C@H]1CC[C@H]2[C@@H]3CC=C4C[C@@H](O)CC[C@]4(C)[C@H]3CC[C@]12C)C(C)C`, the inhibition entry in the data set with BMDC [4], in the data set with BMDC [5] and in the data set on BMDC [6] was “inactive” in each case.

On to `C=C1[C@@H](O)C[C@H]2C(C)(C)[C@@H](O)CC[C@]2(C)[C@H]1C/C=C1/COCC1O` (some centres not stated) [CORONARIN I], for which the Activity entry in data set [7] is on record as “Toxic”.

Take `CC[C@H](CC[C@@H](C)[C@H]1CC[C@H]2[C@@H]3CC=C4C[C@@H](O[C@@H]5O[C@H](CO)[C@@H](O)[C@H](O)[C@H]5O)CC[C@]4(C)[C@H]3CC[C@]12C)C(C)C`: the inhibition result in the data set with BMDC [4], in the data set on BMDC [5] and in the data set on BMDC [6] was “inactive” each time.

Turning to `CC[C@H](/C=C/[C@@H](C)[C@H]1CC[C@H]2[C@@H]3CC=C4C[C@@H](O)CC[C@]4(C)[C@H]3CC[C@]12C)C(C)C`, the inhibition result in the data set with BMDC [4], in the data set with BMDC [5] and in the data set with BMDC [6] was “inactive” in each case.

Turning to `C[S+]([O-])c1ccc(-c2nc(-c3ccc(F)cc3)c(-c3ccncc3)[nH]2)cc1` (configuration not stated) [SB-203580], the IC50 in data set [1] was 7.24 µM; in data set [2] it was 3.53 µM; in data set [3], 5.02 µM.
